These results are taken from the METLIN SMRT retention time set (Domingo-Almenara et al. 2019).

This data set in a line: gradient 5% acetonitrile 3 min, to 50% in 2 min, to 85% in 15 min, held 3 min, 100 µL/min. The settings on record: column: Zorbax Extend-C18 2.1 x 50 mm; eluents: water / acetonitrile, 0.1% formic acid. An outline of the steps:
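Pure standards were run in mixtures of ~100 molecules by HPLC coupled to a quadrupole time-of-flight mass spectrometer. The column was a Zorbax Extend-C18 (2.1 × 50 mm, 1.8 μm) at 100 μL/min, with water and acetonitrile each containing 0.1% formic acid, in positive and negative ionization mode. Dead and dwell volumes were 40 μL and 900 μL. Retention time was taken from computationally picked adduct peaks, each manually inspected, with data collected over 3 months.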
The molecule `CCOC(=O)N1CCN(S(=O)(=O)c2ccc(C(=O)Nc3cc(C)nn3C)cc2)CC1` gave an RP-LC retention time of 687 s.

As for `O=C1CC(c2nc(-c3ccc4c(c3)OCO4)no2)CN1c1ccc(Cl)cc1` (centres undefined), the RP-LC retention time is 1030 s.

Consider `O=C(Cn1ccc2ccc(N3CCOCC3)nc21)NCc1ccc(F)c(Cl)c1`, for which the RP-LC retention time was 920 s.

`CC(C)CC(=O)N1CCN(c2nc(CN3CCC(C)CC3)cs2)CC1` yielded an RP-LC retention time of 634 s.

On to `Cc1ccc2c(c1)N(S(C)(=O)=O)CCC(C(=O)Nc1ccccc1Br)O2` (centres undefined), for which the RP-LC retention time was 1040 s.

`Cc1cccc(-c2nc3ccccn3c2NC(=O)Nc2ccccc2F)c1` displayed an RP-LC retention time of 695 s.

Consider `CCNC(=O)C1CCCN(C(=O)Nc2ccc(NC(=O)Nc3ccc(C)cc3C)cc2)C1` (centres undefined), for which the RP-LC retention time was determined as 730 s.

In turn, `O=C(c1ccc2c(c1)OCO2)N1CCc2cc(-c3csc(C4CC4)n3)ccc21` had an RP-LC retention time of 1090 s.

Regarding `O=C(c1ccc(Cl)s1)N1CCCCC1c1nncn1CC1CC1` (centres undefined), the RP-LC retention time came to 800 s.

For `Cc1ccc(-c2cn3c(CC(=O)Nc4ccc(Cl)cc4F)csc3n2)cc1C`, the RP-LC retention time turned out to be 966 s.

Molecule `O=C(Cc1ccccc1)NCc1nc(-c2cccc(-c3csc(C4CC4)n3)c2)no1` had an RP-LC retention time of 1070 s.

For the molecule `Cc1ccc(CNC(=O)c2nnc(-c3ccc(S(=O)(=O)N4CCCCC4)cc3)o2)cc1`, the RP-LC retention time came to 1020 s.

`COc1ccc(O)c2c(=O)c3c(OC)cc4c(c3oc12)[C@@H]1C=CO[C@@H]1O4` gave an RP-LC retention time of 979 s.

As to `O=C1NC2(CCN(C(=O)Cc3ccccc3)CC2)Nc2c(Cl)cccc21`, the RP-LC retention time amounted to 756 s.

On to `Cc1cc(C)cc(NC(=O)C2CCN(S(=O)(=O)c3c(C)[nH]c(C)c3C(=O)N3CCCC3)CC2)c1`, for which the RP-LC retention time came to 695 s.

As for `Cc1nc(C)c(C(=O)N2CCC(Cc3noc(C4CC4)n3)C2)s1` (centres undefined), the RP-LC retention time amounted to 664 s.

With `O=C1Nc2cc(C(=O)N3CCN(c4ccc(Cl)cc4)CC3)ccc2N2CCCCC12` (centres undefined), the RP-LC retention time is 638 s.

In turn, `CCN(CC)c1nc(C(=O)N2CCN(C(C)C)CC2)nc2nc(C)cc(C)c12` had an RP-LC retention time of 543 s.

With `CCC(C)N(CC(=O)N(Cc1ccco1)CC1CCCO1)C(=O)c1ccccc1OC` (centres undefined), the RP-LC retention time was 805 s.

Molecule `CC(=O)N1CCc2cc(N3CC(C(=O)Nc4ccc(C)cc4C)CC3=O)ccc21` (centres undefined) yielded an RP-LC retention time of 786 s.

Molecule `CCC(=O)N1CCc2c(sc3ncnc(NCc4cccnc4)c23)C1` yielded an RP-LC retention time of 573 s.

`Cc1c(C(=O)NCCOc2ccc3c(c2)OCO3)cccc1[N+](=O)[O-]` came in with an RP-LC retention time of 778 s.

`CCCn1c(C)cnc1C1CN(S(=O)(=O)c2ccccc2Cl)C1` returned an RP-LC retention time of 660 s.

`Cc1ccc(Cl)c(Nc2ccccc2C(=O)O)c1Cl` had an RP-LC retention time of 1050 s.

Molecule `O=C(CCc1csc(NC(=O)c2cccs2)n1)NCCc1c[nH]c2ccccc12` showed an RP-LC retention time of 755 s.

For `O=C(Nc1ccc(F)cc1)N1C[C@H]2C[C@H](C1)[C@H]1CCCC(=O)N1C2`, the RP-LC retention time was 640 s.

As to `O=C(NCc1ccco1)c1nnn(-c2ccc(F)cc2)c1-c1ccncc1`, the RP-LC retention time stood at 726 s.

`CSc1ccccc1C(=O)Nc1ccc2cn[nH]c2c1` displayed an RP-LC retention time of 673 s.

The molecule `CCOC(=O)CNC(=O)Nc1ccc(CCc2nc3ccccc3[nH]2)cc1` displayed an RP-LC retention time of 606 s.

`Cc1cccc(N2CCN(S(=O)(=O)c3cc(-c4nnc(C5CC5)o4)co3)CC2)c1C` displayed an RP-LC retention time of 1130 s.

As for `Cc1ccc2nc3c(c(C(=O)NC4CCCC4)c2c1)CCC3`, the RP-LC retention time turned out to be 690 s.

`Cc1sc(C)c(S(=O)(=O)N2CC=C(c3ccccc3)CC2)c1-c1cc(C(F)(F)F)on1` registered an RP-LC retention time of 1300 s.

Take `CCc1ccc(NS(=O)(=O)c2c(C)nc3sc4cc(C)ccc4n3c2=O)cc1`: the RP-LC retention time was determined as 1240 s.

The molecule `CCOc1ccccc1-c1csc(NC(=O)Cc2csc(-c3ccccc3)n2)n1` came in with an RP-LC retention time of 1240 s.

Take `Cc1ccc(OCC(=O)Nc2nnc(C3CC(=O)N(c4ccc(F)cc4)C3)o2)cc1` (centres undefined): the RP-LC retention time was 792 s.

In turn, `O=C(Cc1csc(-c2ccccc2)n1)Nc1nc(-c2ccc3c(c2)CCCC3)cs1` showed an RP-LC retention time of 764 s.

In turn, `Cc1cc(C)c(S(=O)(=O)N(CCN2CCCCC2C)CC(=O)N2CCNCC2)cc1C` (centres undefined) yielded an RP-LC retention time of 601 s.

Molecule `COc1ccc(C2Cn3cnc(C(=O)N4CCC(C(=O)NC(C)C)CC4)c3CO2)cc1` (centres undefined) showed an RP-LC retention time of 669 s.

In the case of `COc1ccc(Cl)cc1NC(=O)NCCN1CCN(S(C)(=O)=O)CC1`, the RP-LC retention time is 564 s.

On to `Cc1ccc(NC(=O)NC2CCN(c3ccc(F)c(C)c3)C2=O)cc1C` (centres undefined), for which the RP-LC retention time is 899 s.

`O=C(c1cccc(-n2cnnn2)c1)N1CCN(Cc2nc3ccccc3[nH]2)CC1` returned an RP-LC retention time of 543 s.

Take `CCOc1ccccc1N1CCN(Cc2cc(C)[nH]n2)CC1`: the RP-LC retention time came out at 612 s.

Consider `Cc1nn(C)c2nc(OC(C)C(=O)NCCc3ccc(Cl)cc3)cc(C(F)(F)F)c12` (centres undefined), for which the RP-LC retention time is 1080 s.

Regarding `Cn1c(=O)c(N2CCC(C(=O)NCCc3ccco3)CC2)nc2cccnc21`, the RP-LC retention time is 811 s.

On to `Cc1ccc(-c2nnc(Cc3nc(-c4cccc(C(F)(F)F)c4)no3)o2)cc1F`, for which the RP-LC retention time amounted to 1180 s.

For `CCOC(=O)NC(=O)c1ccsc1NC(=O)c1ccc([N+](=O)[O-])s1`, the RP-LC retention time was determined as 851 s.

With `CC(C)C(=O)N1CCc2c(c(-c3nncn3C(C)C)nn2C)C1`, the RP-LC retention time came out at 639 s.

`CCN1CCN(c2cc(C)c3cc(NC(=O)c4cc(-c5ccco5)nc5ccccc45)ccc3n2)CC1` came in with an RP-LC retention time of 599 s.

With `CC1=C(C(=O)Nc2cccc(C(=O)N3CCN(c4ccccc4)CC3)c2)SCCO1`, the RP-LC retention time was found to be 873 s.

Turning to `COC(=O)c1c(C)[nH]c(C(=O)N2CCC(CC(=O)NC3CCCCCC3)CC2)c1C`, the RP-LC retention time was 794 s.

In turn, `CCOc1cc(=O)n2c(c1C(=O)OCc1cccc(C)c1)CCCC2` showed an RP-LC retention time of 926 s.

As for `CCC(CC)C(=O)N1C[C@H]2C[C@H](C1)[C@H]1CCCC(=O)N1C2`, the RP-LC retention time amounted to 645 s.

With `CCOC(=O)Cn1nc(-c2nc(-c3ccc(Cl)cc3)no2)ccc1=O`, the RP-LC retention time came to 1040 s.

As for `Cc1ccc(C(=O)NCc2nc(-c3ccc4c(c3)nnn4C3CCCC3)no2)cc1`, the RP-LC retention time was found to be 969 s.

As to `CCN(CC)S(=O)(=O)N1CCC(C(=O)NCCc2ccccc2)CC1`, the RP-LC retention time worked out at 817 s.

`Cc1csc(-c2csc(S(=O)(=O)NCc3cccs3)c2)n1`: the RP-LC retention time was found to be 907 s.

On to `N#CCn1cccc1-c1nc(-c2ccncc2)no1`, for which the RP-LC retention time was 685 s.

As for `Cc1cc(C(=O)NCC23CCCC=C2NC(=O)CC3)n(C)n1` (centres undefined), the RP-LC retention time worked out at 636 s.

In the case of `Clc1nc(NCCc2ccccc2)c2cn[nH]c2n1`, the RP-LC retention time came out at 827 s.
